Measurements: US20230024096A1, “BIFUNCTIONAL COMPOUNDS FOR THE TREATMENT OF CANCER” (Hoffmann-La Roche Inc., priority 2019, published 2023)

Molecular target: T1, SMARCA2 (Homo sapiens, UniProt P51531)
T1 construct: endogenous in cells; host or cells: HT1080 (CRISPR HiBiT knock-in clone, generated in house)
Assay: SMARCA2 HiBiT degradation assay (cellular)
Type: cell-based
Conditions: table head names A549; for DC50: 6 h incubation, HiBiT-tagged SMARCA2, luminescence read-out, read-out: HiBit A549 SMARCA2 IP (nM) 6 h; for Emax: A549, 6 h incubation, Emax = amount of residual protein remaining in the cell following compound treatment

T1 sequence (P51531 whole entry): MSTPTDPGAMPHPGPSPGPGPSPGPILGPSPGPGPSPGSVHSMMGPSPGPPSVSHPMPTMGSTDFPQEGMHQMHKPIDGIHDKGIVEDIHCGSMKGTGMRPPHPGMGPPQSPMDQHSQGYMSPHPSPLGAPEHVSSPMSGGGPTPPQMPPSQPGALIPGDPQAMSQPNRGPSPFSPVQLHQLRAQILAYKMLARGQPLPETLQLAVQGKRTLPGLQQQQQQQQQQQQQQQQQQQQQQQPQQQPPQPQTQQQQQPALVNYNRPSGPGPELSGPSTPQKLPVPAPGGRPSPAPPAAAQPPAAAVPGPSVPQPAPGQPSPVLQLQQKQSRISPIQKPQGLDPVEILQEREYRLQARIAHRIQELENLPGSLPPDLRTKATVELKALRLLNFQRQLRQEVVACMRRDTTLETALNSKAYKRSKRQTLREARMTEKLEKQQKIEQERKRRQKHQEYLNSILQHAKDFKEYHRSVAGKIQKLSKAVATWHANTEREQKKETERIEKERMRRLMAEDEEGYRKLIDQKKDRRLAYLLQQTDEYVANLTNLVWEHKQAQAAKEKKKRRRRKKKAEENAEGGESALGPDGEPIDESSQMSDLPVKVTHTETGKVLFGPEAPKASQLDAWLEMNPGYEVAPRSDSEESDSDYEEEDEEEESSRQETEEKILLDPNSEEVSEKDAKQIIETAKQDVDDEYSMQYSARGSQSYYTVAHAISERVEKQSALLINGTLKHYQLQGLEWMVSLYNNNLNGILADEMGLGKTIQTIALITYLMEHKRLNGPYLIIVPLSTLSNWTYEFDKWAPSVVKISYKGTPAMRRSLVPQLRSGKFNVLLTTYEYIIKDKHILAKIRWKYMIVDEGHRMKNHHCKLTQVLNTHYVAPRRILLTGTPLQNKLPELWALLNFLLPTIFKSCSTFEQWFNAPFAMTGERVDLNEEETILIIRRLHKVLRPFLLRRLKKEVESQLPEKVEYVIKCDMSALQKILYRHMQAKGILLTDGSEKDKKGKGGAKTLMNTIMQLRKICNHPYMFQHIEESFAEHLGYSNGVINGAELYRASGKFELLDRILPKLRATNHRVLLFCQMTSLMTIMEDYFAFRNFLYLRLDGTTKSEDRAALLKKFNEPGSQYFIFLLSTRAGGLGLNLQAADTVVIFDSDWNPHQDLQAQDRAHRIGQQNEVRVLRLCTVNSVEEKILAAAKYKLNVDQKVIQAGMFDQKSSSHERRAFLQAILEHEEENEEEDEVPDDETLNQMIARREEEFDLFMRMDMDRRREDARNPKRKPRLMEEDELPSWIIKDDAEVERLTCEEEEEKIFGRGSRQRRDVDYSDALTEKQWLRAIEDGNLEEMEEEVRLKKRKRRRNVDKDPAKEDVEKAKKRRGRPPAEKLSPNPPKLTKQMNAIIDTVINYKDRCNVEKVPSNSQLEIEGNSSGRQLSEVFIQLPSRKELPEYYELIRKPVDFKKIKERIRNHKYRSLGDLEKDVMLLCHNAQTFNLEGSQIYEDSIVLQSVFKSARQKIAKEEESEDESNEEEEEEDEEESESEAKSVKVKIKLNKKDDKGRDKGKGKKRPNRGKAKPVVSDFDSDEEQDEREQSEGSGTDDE

| DC50 | Emax | SMILES |
| --- | --- | --- |
| 102 nM | 38% | Nc1nnc(-c2ccccc2O)cc1N1CCC(C(=O)NCC2CCN(C(=O)CN3CCC(c4ccc(NC5CCC(=O)NC5=O)cc4)CC3)CC2)(c2ccccc2)CC1 (centres unmarked) [Example 102, 1-[3-amino-6-(2-hydroxyphenyl)pyridazin-4-yl]-N-[[1-[2-[4-[4-[(2,6-dioxopiperidin-3-yl)amino]phenyl]piperidin-1-yl]acetyl]piperidin-4-yl]methyl]-4-phenylpiperidine-4-carboxamide] |
| 59 nM | 27% | Nc1nnc(-c2ccccc2O)cc1O[C@@H]1CCCN(c2ccc(N3CCN(CCCCCCCCCn4cc(CNc5cccc6c5C(=O)N(C5CCC(=O)NC5=O)C6=O)nn4)CC3)cc2)C1 (stereo partly drawn) [Example 63, 4-[[1-[9-[4-[4-[(3R)-3-[3-amino-6-(2-hydroxyphenyl)pyridazin-4-yl]oxy-1-piperidyl]phenyl]piperazin-1-yl]nonyl]triazol-4-yl]methylamino]-2-(2,6-dioxo-3-piperidyl)isoindoline-1,3-dione] |
| 5 nM | 26% | Nc1nnc(-c2ccccc2O)cc1N1CC(Oc2cccc(CN3CCN(C(=O)C4CCN(c5ccc6c(c5)C(=O)N(C5CCC(=O)NC5=O)C6=O)CC4)CC3)c2)C1 (racemic) [Example 155, rac-5-[4-[4-[[3-[1-[3-amino-6-(2-hydroxyphenyl)pyridazin-4-yl]azetidin-3-yl]oxyphenyl]methyl]piperazine-1-carbonyl]-1-piperidyl]-2-(2,6-dioxo-3-piperidyl)isoindoline-1,3-dione] |
| 104 nM | 30% | Nc1nnc(-c2ccccc2O)cc1N1CCC(C(=O)NCC2CCN(CC3CCN(c4ccc5c(c4)C(=O)N(C4CCC(=O)NC4=O)C5=O)CC3)CC2)(c2ccccc2)CC1 (centres unmarked) [Example 100, 1-(3-amino-6-(2-hydroxyphenyl)pyridazin-4-yl)-N-((1-((1-(2-(2,6-dioxopiperidin-3-yl)-1,3-dioxoisoindolin-5-yl)piperidin-4-yl)methyl)piperidin-4-yl)methyl)-4-phenylpiperidine-4-carboxamide] |
| 17 nM | 26% | Nc1nnc(-c2ccccc2O)cc1N1CCN(c2cccc(OCCN3CCN(C(=O)C4CCN(c5ccc6c(c5)C(=O)N(C5CCC(=O)NC5=O)C6=O)CC4)CC3)c2)C2(CC2)C1 (centres unmarked) [Example 84, 5-(4-(4-(2-(3-(7-(3-amino-6-(2-hydroxyphenyl)pyridazin-4-yl)-4,7-diazaspiro[2.5]octan-4-yl)phenoxy)ethyl)piperazine-1-carbonyl)piperidin-1-yl)-2-(2,6-dioxopiperidin-3-yl)isoindoline-1,3-dione] |
| 104 nM | 45% | CC(Oc1cccc2c1C(=O)N(C1CCC(=O)NC1=O)C2=O)c1cn(CCCN2CCN(C(=O)CCN3CCN(c4ccc(N5CCC[C@H](Oc6cc(-c7ccccc7O)nnc6N)C5)cc4)CC3)CC2)nn1 (mixture of isomers) [Example 200, 2-(2,6-dioxo-3-piperidyl)-4-[1-[1-[3-[4-[3-[4-[4-[rac-(3S)-3-[3-amino-6-(2-hydroxyphenyl)pyridazin-4-yl]oxy-1-piperidyl]phenyl]piperazin-1-yl]propanoyl]piperazin-1-yl]propyl]triazol-4-yl]ethoxy]isoindoline-1,3-dione] |

| SMILES | DC50 | Emax |
| --- | --- | --- |
| Nc1nnc(-c2ccccc2O)cc1N1CC2CCC(C1)N2c1cccc(OCCN2CCN(C(=O)N3CCC(c4ccc(NC5CCC(=O)NC5=O)cc4)CC3)CC2)c1 (racemic) [Example 80, rac-3-[4-[1-[4-[2-[3-[3-[3-amino-6-(2-hydroxyphenyl)pyridazin-4-yl]-3,8-diazabicyclo[3.2.1]octan-8-yl]phenoxy]ethyl]piperazine-1-carbonyl]-4-piperidyl]anilino]piperidine-2,6-dione] | 11 nM | 51% |
